Data as given in article PMC11643077, “Synthesis of 1,2,4-Oxadiazin-5(6H)-One Derivatives and Their Biological Investigation as Monoamine Oxidase Inhibitors” (Molecules, 2024).

How the values were obtained:
MAO-A [1] = tested on: MAO-A; design: method as in doi:10.1016/0223-5234(88)90141-9; conditions: Figure 1; cited from earlier work
MAO-B [2] = tested on: MAO-B; design: method as in doi:10.1016/0223-5234(88)90141-9; conditions: Figure 1; cited from earlier work
MAO-B [3] = biological target: T1, MAO-B (Homo sapiens, UniProt P27338); assay: MAO-B inhibition, recombinant human enzyme, kynuramine substrate, fluorometric end-point; format: biochemical; conditions: mean ± SD of triplicate, racemic mixtures, NI = no inhibition at 100 µM
T1 construct: purchased Merck
T1 sequence (P27338 1-520): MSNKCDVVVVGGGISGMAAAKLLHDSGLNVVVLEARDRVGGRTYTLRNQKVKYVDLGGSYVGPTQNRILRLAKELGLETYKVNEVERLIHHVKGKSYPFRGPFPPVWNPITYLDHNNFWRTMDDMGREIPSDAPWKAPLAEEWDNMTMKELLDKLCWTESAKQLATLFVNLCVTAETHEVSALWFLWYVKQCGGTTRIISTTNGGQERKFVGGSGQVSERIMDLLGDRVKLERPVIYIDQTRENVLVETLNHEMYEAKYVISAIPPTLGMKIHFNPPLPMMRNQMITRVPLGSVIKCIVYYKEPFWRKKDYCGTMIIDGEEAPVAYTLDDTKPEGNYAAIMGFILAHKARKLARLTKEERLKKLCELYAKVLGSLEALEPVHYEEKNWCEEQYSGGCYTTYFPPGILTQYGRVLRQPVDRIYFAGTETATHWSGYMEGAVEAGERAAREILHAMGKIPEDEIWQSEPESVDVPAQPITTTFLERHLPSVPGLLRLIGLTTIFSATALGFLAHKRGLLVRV
Description: (§1) The in vitro inhibition studies were carried out according to the published procedure, and the inhibition potencies were expressed as the IC50 values (Figure 2). […] A variety of C3 substituents were explored in this study, which included the phenyl, benzyl and 5-methylthiophen-2-yl moieties, while different substituents on the phenyl (e.g., CH3, OCH3, Cl, Br, F, CF3, OCF3, NO2, PhO) were considered.
(§2) The inhibition potencies of the 1,2,4-oxadiazin-5(6H)-one derivatives were determined using commercially available recombinant human MAO-A and MAO-B (Merck) according to the published procedure. Stock solutions of all compounds were prepared in DMSO and added to the enzyme reactions to yield a final concentration of 4% DMSO. […] Kynuramine was used as enzyme substrate for both MAO isoforms and was oxidized to ultimately form 4-hydroxyquinoline, which is a fluorescent metabolite. The concentrations of 4-hydroxyquinoline in the reactions were measured at end-point by fluorescence spectrometry (λex = 310 nm; λem = 400 nm). Using this approach, the rates of kynuramine oxidation by MAO were measured in the presence of different concentrations of the test inhibitors (0.003–100 µM) as well as in the absence of inhibitor. […] IC50 values were estimated from these plots and were reported as the mean ± SD of triplicate determinations.

MAO-A [4] = biological target: T2, MAO-A (Homo sapiens, UniProt P21397); assay: Mode of MAO-A inhibition, Lineweaver-Burk plots; format: biochemical
T2 construct: purchased Merck
T2 sequence (P21397 1-527): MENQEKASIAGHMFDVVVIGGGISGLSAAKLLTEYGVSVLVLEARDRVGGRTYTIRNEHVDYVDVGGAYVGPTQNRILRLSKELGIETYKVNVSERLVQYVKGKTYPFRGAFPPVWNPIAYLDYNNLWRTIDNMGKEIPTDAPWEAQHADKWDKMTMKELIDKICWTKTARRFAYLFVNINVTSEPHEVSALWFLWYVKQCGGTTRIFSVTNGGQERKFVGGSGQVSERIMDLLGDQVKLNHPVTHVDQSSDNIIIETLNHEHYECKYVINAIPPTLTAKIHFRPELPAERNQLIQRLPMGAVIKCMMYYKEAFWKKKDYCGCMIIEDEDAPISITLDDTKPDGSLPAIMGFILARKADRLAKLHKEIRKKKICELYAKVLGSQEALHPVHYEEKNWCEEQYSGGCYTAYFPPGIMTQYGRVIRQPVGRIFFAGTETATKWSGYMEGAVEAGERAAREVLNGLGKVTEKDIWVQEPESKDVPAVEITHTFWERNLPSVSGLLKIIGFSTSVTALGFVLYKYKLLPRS
Description: (§3) To investigate the mode of MAO inhibition, Lineweaver–Burk plots were constructed for the two inhibitors of the respective MAO isoforms, 3f and 5f. For each inhibitor, six plots were constructed using a range of eight substrate concentrations (15–250 µM) for each plot. The inhibitor concentrations were selected to bracket the IC50 values. […] For each isoform, a plot was also constructed in the absence of the inhibitor.
(§4) To investigate the mode of inhibition, Lineweaver–Burk plots were constructed. A set of six plots were constructed for each test inhibitor using five inhibitor concentrations that bracketed the IC50 value as well as one plot in the absence of inhibitor. For each line, eight different concentrations of kynuramine (15–250 µM) were used. Subsequently, the slopes of the Lineweaver–Burk plots were plotted versus inhibitor concentration, and the Ki values were estimated from the x-intercept (Ki = −x-intercept).

MAO-A [5] = biological target: T2, MAO-A; assay: MAO-A inhibition, recombinant human enzyme, kynuramine substrate, fluorometric end-point; format: biochemical; conditions: mean ± SD of triplicate, racemic mixtures, NI = no inhibition at 100 µM
Description: as §1, §2

MAO-B [6] = biological target: T1, MAO-B; assay: Mode of MAO-B inhibition, Lineweaver-Burk plots; format: biochemical
Description: as §3, §4

Row | IC50 (MAO-B [3]) | mode of MAO-A inhibition (MAO-A [4]; Lineweaver-Burk plots) | Ki (MAO-A [4]; from replot of Lineweaver-Burk slopes versus inhibitor concentration (1 to 5 µM), kynuramine 15–250 µM) | IC50 (MAO-A [5]) | mode of MAO-B inhibition (MAO-B [6]; Lineweaver-Burk plots) | Ki (MAO-B [6]; from replot of Lineweaver-Burk slopes versus inhibitor concentration (0.25 to 1.25 µM), kynuramine 15–250 µM) | melting point | Compound | IC50 (MAO-A [1]) | IC50 (MAO-B [2])
1 | – | – | – | – | – | – | – | N#CCCN1N=C(c2ccc(-c3ccccc3)cc2)OCC1=O [A, 2-(4-Biphenylyl)-4-(2-cyanoethyl)-4H-1,3,4-oxadiazin-5(6H)-one] | 32000 nM | 630 nM
2 | 3.98 ± 0.518 µM | competitive inhibition | 1300 nM | 3.75 ± 0.212 µM | – | – | – | COc1ccc(Oc2ccc(C3=NOCC(=O)N3)cc2)cc1 [Compound 3f, 3-(4-(4-Methoxyphenoxy)phenyl)-4H-1,2,4-oxadiazin-5(6H)-one] | – | –
3 | 0.9 ± 0.05 µM | – | – | 15.4 ± 1.98 µM | competitive inhibition | 350 nM | 117 to 119 °C | CCC1ON=C(c2ccc(Oc3ccc(OC)cc3)cc2)NC1=O (centres unmarked) [Compound 5f, 6-Ethyl-3-(4-(4-methoxyphenoxy)phenyl)-4H-1,2,4-oxadiazin-5(6H)-one] | – | –
